The results in this text go back to US20200123127A1, “REMOVAL OF SENESCENCE-ASSOCIATED MACROPHAGES” (EVERON BIOSCIENCES, INC., priority 2016, published 2020).

SMILES strings stand for the structures. Read-outs that look alike come from different tables or passages of the source.

Experiment [1] concerns B16 melanoma lung metastasis in C57BL/6 mice. As to the kind of experiment: Senescence-enhanced B16 lung metastasis model. It counts as in vivo, mouse. The note with it: 20 mg/kg intraperitoneally once a day for 5 consecutive days; irradiated (11 Gy) C57BL/6 mice. The source says: FIG. 4. Efficacy of A1.1 analogs in the senescence-enhanced B16 metastasis model. (A) Quantification of metastatic nodules by H&E morphometric analysis, and the resulting reduction in tumor burden (%) compared to vehicle control. (B) Quantitation morphometric analysis of lungs excised from irradiated mice treated with analogs of A1.1 post-inoculation of B16 cell intravenously, along with quantitation of morphometric analysis, are provided. (C) In vitro testing of A1.1 and analogs against the growth and viability of B16 cells, as assessed by the resazurin viability assay after 72 hour exposure to compounds compared to non-treated controls.
The role of senescent cells in the promotion of metastatic potential of cancer cells has also been described [Patent WO 2013090645 A1; Campisi, J. (2015). Cancer and Aging: Rival Demons]. […] To test the efficacy of A1.1, irradiated (11 Gy followed by bone-marrow transplantation) and non-irradiated C57BL/6 mice received B16 melanoma cells via tail vein injection were subsequently (72 hours later) administered A1.1 (20 mg/kg) intraperitoneally once a day for 5 consecutive days.
Synthesized analogs were also tested in vivo, to assess whether optimized structures are capable of showing activity against senescence-mediated B16 lung metastasis in irradiated mice (FIG. 4B). Analogs A1.1, A1.12, A1.13, A1.14, A1.15, and A1.6 were administered at 20 mg/kg intraperitoneally for 5 consecutive days. In addition to A1.1, treatment with analogs A1.12, A1.14 and A1.15 at 20 mg/kg reduced the metastatic burden in the lungs of irradiated mice by more than 2-fold.

Experiment [2] concerns human neonatal dermal fibroblasts (NDF). As to the kind of experiment: Resazurin viability assay, senescent vs proliferating/quiescent human neonatal dermal fibroblasts. The note with it: Homo sapiens, Fibroblast, 72 h, 72 hour exposure, resazurin. Type of experiment: cell-based. The protocol:
FIG. 2. Compound A1.1 selectively kills senescent human neonatal dermal fibroblasts (NDF) cells in a dose- and time-dependent manner. (FIG. 2A) Normal proliferating and quiescent NDF cells, and the cells made senescent via exposure to genotoxic agents (doxorubicin, bleomycin and gamma-irradiation) were incubated with increasing concentrations of A1.1. At 72 hours post-treatment cell viability was measured via resazurin viability assay. (FIG. 2B) Compound A1.1 selectively kills senescent NDF cells in time-dependent manner discriminating between acute genotoxic stress and senescence. Acutely damaged NDF cells were irradiated with 4 Gy gamma-irradiation 24 hours before A1.1 treatment. Senescent NDF cells were treated with bleomycin or irradiated with 15 Gy and incubated for 14 days to induce senescence before treatment with A1.1. Proliferating acutely damaged and senescent NDF cell were treated with 1.875-30 μM A1.1 and viable cells were measured at 72 hours after treatment. Average and standard deviation are shown.
Normal proliferating and quiescent NDF cells, and the cells made senescent via exposure to genotoxic agents (doxorubicin, bleomycin and gamma-irradiation) were incubated with increasing concentrations of A1.1. At 72 hours post-treatment cell viability was measured via resazurin viability assay.
A1.1 selectively kills senescent human neonatal dermal fibroblasts (NDF) cells in time-dependent manner discriminating between acute genotoxic stress and senescence ([…]). Acutely damaged NDF cells were irradiated with 4 Gy gamma-irradiation 24 hours before A1.1 treatment. Senescent NDF cells were treated with bleomycin or irradiated with 15 Gy and incubated for 14 days to induce senescence before treatment with A1.1.
(§1) Cytotoxicity of A1.1 analogs against bleomycin-induced senescent human NDFs and rat dermal fibroblasts (RDFs). Activity of analogs was assessed from dose-response curves against irradiation- or bleomycin-induced senescent and proliferating cells to calculate IC50s (uM). The fold difference of proliferating versus senescent cell IC50s was used to assess the level of specific anti-senescent activity of the compounds.
(§2) For generation senescent human neonatal dermal fibroblasts (NDFs) and adult rat dermal fibroblasts (RDFs), cells are treated at ˜10 ug/ml bleomycin for 3 days (for bleomycin-induced senescence) or irradiated once at 20 Gy using a gamma irradiator (Cs source), followed by at least 7 day recovery in fresh medium for induction of senescence. Senescent and non-senescent (proliferating) cells for each cell line are plated into 384-w plate, followed by 72 hour exposure to a dose titration of compounds. Viability measurements are estimated using the resazurin viability assay. Using GraphPad Prism 5, the IC50 values are calculated from the non-linear regression of log-transformed compound concentrations versus dose-response normalized to background and non-treated controls.
On the technique in general: Resazurin is reduced to fluorescent resorufin, in cell work by metabolically active cells.

The test system of experiment [3] is adult rat dermal fibroblasts (RDF). Put plainly: Resazurin viability assay, senescent vs proliferating rat dermal fibroblasts. Type of experiment: cell-based. To be noted: Rattus norvegicus, Fibroblast, 72 hour exposure, resazurin. On the procedure:
as §1, §2

Experiment [4] deals with RWPE-1 normal prostate epithelial cells. Put plainly: dnPTEN-induced senescence model in RWPE-1 cells (SA-beta-Gal and methylene blue staining). It counts as cell-based. To be noted: 10 uM for 72 hours. On the procedure: FIG. 3. Activity of A1.1 and analog A1.12 in a model of dnPTEN-induced senescence in RWPE-1 normal prostate epithelial cells. A population of transduced RWPE-1 cells containing doxycycline-inducible dnPTEN was senesced via 1 ug/ml doxycycline for 7 days. Cells which bypass senescence continued to proliferate to form a confluent monolayer. The mixed population of senescent and proliferating cells was treated with A1.1 and A1.12 at 10 uM for 72 hours. SA-beta-Gal staining was used to monitor the amount of senescent cells of treatment groups compared to non-treated control. In addition, methylene blue was used to quantitate overall cell mass, which was comprised mostly of the non-senescent, proliferating cells. Treatment with the anti-senescent compounds led to a substantial decrease in SA-beta-Gal staining, while the amount of methylene blue staining was less affected.
Senescent cells are strongly associated with benign prostate hyperplasia (BPH) and the development of prostate cancer [Vital, P. et al. (2014) The Senescence-Associated Secretory Phenotype Promotes Benign Prostatic Hyperplasia. Am J Pathol, 184(3): 721-731; Burton, D. et al. (2013). Androgen Deprivation-Induced Senescence Promoted Outgrowth of Anderogen-Refractory Protstate Cancer Cells. PLOS One, 8(6):e68003]. […] We sought to evaluate the efficacy of our compounds in a model of RWPE-1 normal prostate epithelial cells transduced with a construct for inducible loss of PTEN function [doxycycline-inducible expression of a dominant-negative PTEN (dnPTEN) mutant]. In the presence of doxycycline, a fraction of the population of transduced cells became senescent, while cells bypassing senescence continued to grow until a confluent monolayer was formed.

As for `COc1ccc(C2C/C(=N\O)c3c(SCc4ccccc4)sc(C(=O)N4CCOCC4)c3C2)cc1` (stereo not shown) [Example A1.13, (3-(Benzylthio)-4-(hydroxyimino)-6-(4-methoxyphenyl)-4,5,6,7tetrahydrobenzo[c]thiophen-1-yl)(morpholino)methanone], in experiment [1], the “reduction of B16 metastatic load in the lungs of irradiated mice vs vehicle” value is listed as “did not show a substantial decrease”.

What is called IC50 is the concentration needed to halve the response being measured. Take `CCNC(=O)c1sc(SCc2ccccc2)c2c1CC(c1ccc(OC)cc1)C/C2=N\O` (stereo not shown) [Example A1.12]: the IC50 is below 10 µM in experiment [2] (proliferating NDF, read-out: IC50 NDFprolif); below 5 µM in experiment [2] (senescent NDF, bleomycin-induced, read-out: IC50 NDFsen.bleo); below 10 µM in experiment [3] (proliferating RDF, read-out: IC50 RDFprolif); below 5 µM in experiment [3] (senescent RDF, bleomycin-induced, read-out: IC50 RDFsen.bleo). In addition, the “proliferating cells / overall cell mass (methylene blue staining)” value in experiment [4] was “little effect against proliferating cells”. Moreover, the “senescent cells (number of SA-β-Gal-positive cells)” value in experiment [4] (dnPTEN-induced senescence) was “selective elimination of senescent cells”.
